Key:
Type in all cases: cell-based
Enterobacter cloacae = assay: MIC against Gram-negative bacteria: Enterobacter cloacae; settings: for MIC: E. cloacae
How it was run: (§1)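 Broth microdilution, LB medium, final inoculum 5×10^5 CFU/mL from McFarland 0.5 cultures. Recombinant human EGF domain proteins tested in two-fold steps, n=3. MIC: lowest concentration, no growth.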

Pseudomonas aeruginosa = assay: MIC against Gram-negative bacteria: Pseudomonas aeruginosa; settings: for MIC: P. aeruginosa
How it was run: as §1

E. coli BL21 = assay: MIC against Gram-negative bacteria: E. coli BL21
How it was run: as §1

Klebsiella pneumonia = assay: MIC against Gram-negative bacteria: Klebsiella pneumonia; settings: for MIC: K. pneumonia
How it was run: as §1

Citrobacter diversus = assay: MIC against Gram-negative bacteria: Citrobacter diversus; settings: for MIC: C. diversus
How it was run: as §1

E. coli DH5α = assay: Antibacterial activity: MIC and growth curve against E. coli DH5α in 96-well plate; settings: minimal inhibitory concentration against E. coli DH5α; 96-well plate, 5×10^5 CFU/mL, 37° C., judged after 8 h
How it was run: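 Log-phase DH5α (OD600 about 0.5, 37° C, 185 rpm in LB) was pelleted, resuspended in fresh LB and seeded at 5×10^5 CFU/mL with recombinant protein at 50, 25 and 12.5 μg/mL (two-fold series), in triplicate. Plates were shaken at 175 rpm, 37° C, and OD600 was read every 30 min. MIC was the lowest concentration with no growth.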

Serratia marcescens = assay: MIC against Gram-negative bacteria: Serratia marcescens; settings: for MIC: S. marcescens
How it was run: as §1

Proteus vulgaris = assay: MIC against Gram-negative bacteria: Proteus vulgaris; settings: for MIC: P. vulgaris
How it was run: as §1

Aeromonas hydrophila = assay: MIC against Gram-negative bacteria: Aeromonas hydrophila; settings: for MIC: A. hydrophila
How it was run: as §1

Moraxella catarrhalis = assay: MIC against Gram-negative bacteria: Moraxella catarrhalis; settings: for MIC: M. catarrhalis
How it was run: as §1

Proteus mirabilis = assay: MIC against Gram-negative bacteria: Proteus mirabilis; settings: for MIC: P. mirabilis
How it was run: as §1

[1] = 96-well plate, 5×10^5 CFU/mL, 37° C., 10 h
[2] = Enterobacter cloacae, 96-well plate, 5×10^5 CFU/mL, 37° C., 10 h
[3] = Pseudomonas aeruginosa, 96-well plate, 5×10^5 CFU/mL, 37° C., 10 h
[4] = E. coli BL21, 96-well plate, 5×10^5 CFU/mL, 37° C., 10 h
[5] = Klebsiella pneumonia, 96-well plate, 5×10^5 CFU/mL, 37° C., 10 h
[6] = Citrobacter diversus, 96-well plate, 5×10^5 CFU/mL, 37° C., 10 h
[7] = Serratia marcescens, 96-well plate, 5×10^5 CFU/mL, 37° C., 10 h
[8] = Proteus vulgaris, 96-well plate, 5×10^5 CFU/mL, 37° C., 10 h
[9] = Aeromonas hydrophila, 96-well plate, 5×10^5 CFU/mL, 37° C., 10 h
[10] = Moraxella catarrhalis, 96-well plate, 5×10^5 CFU/mL, 37° C., 10 h
[11] = Proteus mirabilis, 96-well plate, 5×10^5 CFU/mL, 37° C., 10 h
[12] = E. coli BL21, 10 h cultivation at 37° C.
[13] = 10 h cultivation at 37° C., 5×10^5 CFU/mL, two-fold serial dilution

Substance: PRT689 (DNDECADEEPACEGGRCVNTVGSYHCTCEPPLVLDGSQRRCV; listed as Homo sapiens)
- MIC E. cloacae (Enterobacter cloacae; [1]): 25 µg/mL
- MIC P. aeruginosa (Pseudomonas aeruginosa; [1]): 50 µg/mL
- MIC E. coli BL21 (E. coli BL21; [1]): 25 µg/mL
- MIC K. pneumonia (Klebsiella pneumonia; [1]): 12.5 µg/mL
- MIC C. diversus (Citrobacter diversus; [1]): 12.5 µg/mL
- MIC (E. coli DH5α): 100 µg/mL
- MIC S. marcescens (Serratia marcescens; [1]): 25 µg/mL
- MIC P. vulgaris (Proteus vulgaris; [1]): 12.5 µg/mL
- MIC A. hydrophila (Aeromonas hydrophila; [1]): 50 µg/mL
- MIC M. catarrhalis (Moraxella catarrhalis; [1]): 50 µg/mL
- MIC P. mirabilis (Proteus mirabilis; [1]): 25 µg/mL

Substance: PRT679 (DLNECAKPHLCGDGGFCINFPGHYKCNCYPGYRLKASRPPVCE; listed as Homo sapiens)
- MIC E. cloacae (Enterobacter cloacae; [1]): 12.5 µg/mL
- MIC P. aeruginosa (Pseudomonas aeruginosa; [1]): 25 µg/mL
- MIC E. coli BL21 (E. coli BL21; [1]): 50 µg/mL
- MIC K. pneumonia (Klebsiella pneumonia; [1]): 25 µg/mL
- MIC C. diversus (Citrobacter diversus; [1]): 50 µg/mL
- MIC (E. coli DH5α): 12.5 µg/mL
- MIC S. marcescens (Serratia marcescens; [1]): 25 µg/mL
- MIC P. vulgaris (Proteus vulgaris; [1]): 50 µg/mL
- MIC A. hydrophila (Aeromonas hydrophila; [1]): 25 µg/mL
- MIC M. catarrhalis (Moraxella catarrhalis; [1]): 12.5 µg/mL
- MIC P. mirabilis (Proteus mirabilis; [1]): 25 µg/mL

Substance: PRT1274 (DVDECAEGNGGCQQSCVNMMGSYECHCREGFFLSDNQ; listed as Homo sapiens)
- MIC against E. cloacae (Enterobacter cloacae; [2]): 12.5 µg/mL
- MIC against P. aeruginosa (Pseudomonas aeruginosa; [3]): 12.5 µg/mL
- MIC against E. coli BL21 (E. coli BL21; [4]): 50 µg/mL
- MIC against K. pneumonia (Klebsiella pneumonia; [5]): 50 µg/mL
- MIC against C. diversus (Citrobacter diversus; [6]): 25 µg/mL
- MIC (E. coli DH5α): 12.5 µg/mL
- MIC against S. marcescens (Serratia marcescens; [7]): 25 µg/mL
- MIC against P. vulgaris (Proteus vulgaris; [8]): 50 µg/mL
- MIC against A. hydrophila (Aeromonas hydrophila; [9]): 50 µg/mL
- MIC against M. catarrhalis (Moraxella catarrhalis; [10]): 12.5 µg/mL
- MIC against P. mirabilis (Proteus mirabilis; [11]): 25 µg/mL

Substance: PRT61 (KDECSKDNGGCQQDCVNTFGSYECQCRSGFVLHDNKHDCK; listed as Homo sapiens)
- MIC (μg/mL) E. cloacae (Enterobacter cloacae; [2]): 12.5 µg/mL
- MIC (μg/mL) P. aeruginosa (Pseudomonas aeruginosa; [3]): 12.5 µg/mL
- MIC (μg/mL) E. coli BL21 (E. coli BL21; [4]): 50 µg/mL
- MIC (μg/mL) K. pneumonia (Klebsiella pneumonia; [5]): 12.5 µg/mL
- MIC (μg/mL) C. diversus (Citrobacter diversus; [6]): 25 µg/mL
- MIC (E. coli DH5α): 12.5 µg/mL
- MIC (μg/mL) S. marcescens (Serratia marcescens; [7]): 25 µg/mL
- MIC (μg/mL) P. vulgaris (Proteus vulgaris; [8]): 12.5 µg/mL
- MIC (μg/mL) A. hydrophila (Aeromonas hydrophila; [9]): 12.5 µg/mL
- MIC (μg/mL) M. catarrhalis (Moraxella catarrhalis; [10]): 25 µg/mL
- MIC (μg/mL) P. mirabilis (Proteus mirabilis; [11]): 25 µg/mL

Substance: PRT958 (DVDECSIGANPCEHLGRCVNTQGSFLCQCGRGYTGPRCE; listed as Homo sapiens)
- MIC (Enterobacter cloacae; 10 h cultivation at 37° C.): 25 µg/mL
- MIC (Pseudomonas aeruginosa; 10 h cultivation at 37° C.): 25 µg/mL
- MIC (E. coli BL21; [12]): 12.5 µg/mL
- MIC (Klebsiella pneumonia; 10 h cultivation at 37° C.): 50 µg/mL
- MIC (Citrobacter diversus; 10 h cultivation at 37° C.): 12.5 µg/mL
- MIC (E. coli DH5α): 50 µg/mL
- MIC (Serratia marcescens; 10 h cultivation at 37° C.): 25 µg/mL
- MIC (Proteus vulgaris; 10 h cultivation at 37° C.): 12.5 µg/mL
- MIC (Aeromonas hydrophila; 10 h cultivation at 37° C.): 25 µg/mL
- MIC (Moraxella catarrhalis; 10 h cultivation at 37° C.): 50 µg/mL
- MIC (Proteus mirabilis; 10 h cultivation at 37° C.): 25 µg/mL

Substance: PRT1177 (DANECEAKPCVNAKSCKNLIASYYCDCLPGWMGQNCD; listed as Homo sapiens)
- MIC E. cloacae (Enterobacter cloacae; [13]): 50 µg/mL
- MIC P. aeruginosa (Pseudomonas aeruginosa; [13]): 50 µg/mL
- MIC E. coli BL21 (E. coli BL21; [13]): 12.5 µg/mL
- MIC K. pneumonia (Klebsiella pneumonia; [13]): 12.5 µg/mL
- MIC C. diversus (Citrobacter diversus; [13]): 50 µg/mL
- MIC (E. coli DH5α): 50 µg/mL
- MIC S. marcescens (Serratia marcescens; [13]): 25 µg/mL
- MIC P. vulgaris (Proteus vulgaris; [13]): 12.5 µg/mL
- MIC A. hydrophila (Aeromonas hydrophila; [13]): 12.5 µg/mL
- MIC M. catarrhalis (Moraxella catarrhalis; [13]): 12.5 µg/mL
- MIC P. mirabilis (Proteus mirabilis; [13]): 50 µg/mL

Substance: PRT906 (LVHWCDSSPCKNGGKCWQTHTQYRCECPSGWTGLYCD; listed as Homo sapiens)
- MIC (Enterobacter cloacae; 10 h cultivation at 37° C.): 50 µg/mL
- MIC (Pseudomonas aeruginosa; 10 h cultivation at 37° C.): 12.5 µg/mL
- MIC (E. coli BL21; [12]): 25 µg/mL
- MIC (Klebsiella pneumonia; 10 h cultivation at 37° C.): 25 µg/mL
- MIC (Citrobacter diversus; 10 h cultivation at 37° C.): 25 µg/mL
- MIC (E. coli DH5α): 50 µg/mL
- MIC (Serratia marcescens; 10 h cultivation at 37° C.): 25 µg/mL
- MIC (Proteus vulgaris; 10 h cultivation at 37° C.): 12.5 µg/mL
- MIC (Aeromonas hydrophila; 10 h cultivation at 37° C.): 12.5 µg/mL
- MIC (Moraxella catarrhalis; 10 h cultivation at 37° C.): 50 µg/mL
- MIC (Proteus mirabilis; 10 h cultivation at 37° C.): 25 µg/mL

From US9833497B2, “Human originated EGF domain proteins and use of the same” (CHENGDU SOURCEBIO LIMITED-LIABILITY COMPANY, priority 2013, dated 2017)
